Reference: PubChem BioAssay (NCI)
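Each compound was tested at five concentrations against cells in 96-well plates for 48 hours. The concentration for full growth arrest is given as TGI.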

Columns and labels:
Test in all cases: DTP human tumour cell line panel, 48 h
786-0 renal = system: 786-0 renal
A498 renal = system: A498 renal
A549 NSCLC = system: A549 NSCLC
ACHN renal = system: ACHN renal
BT-549 breast = system: BT-549 breast
CAKI-1 renal = system: CAKI-1 renal
CCRF-CEM leukemia = system: CCRF-CEM leukemia
COLO 205 colon = system: COLO 205 colon
DU-145 prostate = system: DU-145 prostate
EKVX NSCLC = system: EKVX NSCLC
HCT-116 colon = system: HCT-116 colon
HCT-15 colon = system: HCT-15 colon
HL-60(TB) leukemia = system: HL-60(TB) leukemia
HOP-62 NSCLC = system: HOP-62 NSCLC
HOP-92 NSCLC = system: HOP-92 NSCLC
HS 578T breast = system: HS 578T breast
HT29 colon = system: HT29 colon
IGROV1 ovarian = system: IGROV1 ovarian
K-562 leukemia = system: K-562 leukemia
KM12 colon = system: KM12 colon
M14 melanoma = system: M14 melanoma
MALME-3M melanoma = system: MALME-3M melanoma
MCF7 breast = system: MCF7 breast
MDA-MB-231 breast = system: MDA-MB-231 breast
MDA-MB-435 = system: MDA-MB-435
MDA-N = system: MDA-N
MOLT-4 leukemia = system: MOLT-4 leukemia
NCI-H226 lung = system: NCI-H226 lung
NCI-H23 lung = system: NCI-H23 lung
NCI-H460 lung = system: NCI-H460 lung
NCI-H522 lung = system: NCI-H522 lung
NCI/ADR-RES ovarian = system: NCI/ADR-RES ovarian
OVCAR-3 ovarian = system: OVCAR-3 ovarian
OVCAR-4 ovarian = system: OVCAR-4 ovarian
OVCAR-5 ovarian = system: OVCAR-5 ovarian
OVCAR-8 ovarian = system: OVCAR-8 ovarian
PC-3 prostate = system: PC-3 prostate
RPMI-8226 leukemia = system: RPMI-8226 leukemia
RXF 393 renal = system: RXF 393 renal
SF-268 CNS = system: SF-268 CNS
SF-295 CNS = system: SF-295 CNS
SF-539 CNS = system: SF-539 CNS
SK-MEL-2 melanoma = system: SK-MEL-2 melanoma
SK-MEL-28 melanoma = system: SK-MEL-28 melanoma
SK-MEL-5 melanoma = system: SK-MEL-5 melanoma
SK-OV-3 ovarian = system: SK-OV-3 ovarian
SN12C renal = system: SN12C renal
SNB-19 CNS = system: SNB-19 CNS
SNB-75 CNS = system: SNB-75 CNS
SR leukemia = system: SR leukemia
SW-620 colon = system: SW-620 colon
T-47D breast = system: T-47D breast
U251 CNS = system: U251 CNS
UACC-257 melanoma = system: UACC-257 melanoma
UACC-62 melanoma = system: UACC-62 melanoma
UO-31 renal = system: UO-31 renal
LOX IMVI melanoma = system: LOX IMVI melanoma
TK-10 renal = system: TK-10 renal

Structure (SMILES): COc1cc2c(c(O)c1OC)C(=O)C1CCC(=O)N1C2c1cccc2ccccc12 (centres undefined)
- TGI (786-0 renal): > 100 µM
- TGI (A498 renal): > 100 µM
- TGI (A549 NSCLC): > 100 µM
- TGI (ACHN renal): > 100 µM
- TGI (BT-549 breast): > 100 µM
- TGI (CAKI-1 renal): > 100 µM
- TGI (CCRF-CEM leukemia): 77 µM
- TGI (COLO 205 colon): 32.8 µM
- TGI (DU-145 prostate): > 100 µM
- TGI (EKVX NSCLC): > 100 µM
- TGI (HCT-116 colon): > 100 µM
- TGI (HCT-15 colon): > 100 µM
- TGI (HL-60(TB) leukemia): 63.9 µM
- TGI (HOP-62 NSCLC): > 100 µM
- TGI (HOP-92 NSCLC): 89.5 µM
- TGI (HS 578T breast): > 100 µM
- TGI (HT29 colon): > 100 µM
- TGI (IGROV1 ovarian): > 100 µM
- TGI (K-562 leukemia): 59.2 µM
- TGI (KM12 colon): > 100 µM
- TGI (M14 melanoma): > 100 µM
- TGI (MALME-3M melanoma): > 100 µM
- TGI (MCF7 breast): > 100 µM
- TGI (MDA-MB-231 breast): > 100 µM
- TGI (MDA-MB-435): > 100 µM
- TGI (MDA-N): > 100 µM
- TGI (MOLT-4 leukemia): 89.6 µM
- TGI (NCI-H226 lung): > 100 µM
- TGI (NCI-H23 lung): > 100 µM
- TGI (NCI-H460 lung): > 100 µM
- TGI (NCI-H522 lung): > 100 µM
- TGI (NCI/ADR-RES ovarian): > 100 µM
- TGI (OVCAR-3 ovarian): > 100 µM
- TGI (OVCAR-4 ovarian): > 100 µM
- TGI (OVCAR-5 ovarian): > 100 µM
- TGI (OVCAR-8 ovarian): > 100 µM
- TGI (PC-3 prostate): > 100 µM
- TGI (RPMI-8226 leukemia): 81.2 µM
- TGI (RXF 393 renal): > 100 µM
- TGI (SF-268 CNS): > 100 µM
- TGI (SF-295 CNS): > 100 µM
- TGI (SF-539 CNS): > 100 µM
- TGI (SK-MEL-2 melanoma): > 100 µM
- TGI (SK-MEL-28 melanoma): > 100 µM
- TGI (SK-MEL-5 melanoma): > 100 µM
- TGI (SK-OV-3 ovarian): > 100 µM
- TGI (SN12C renal): > 100 µM
- TGI (SNB-19 CNS): > 100 µM
- TGI (SNB-75 CNS): > 100 µM
- TGI (SR leukemia): > 100 µM
- TGI (SW-620 colon): > 100 µM
- TGI (T-47D breast): > 100 µM
- TGI (U251 CNS): > 100 µM
- TGI (UACC-257 melanoma): > 100 µM
- TGI (UACC-62 melanoma): > 100 µM
- TGI (UO-31 renal): > 100 µM

Structure (SMILES): COC(=O)C1C(OS(=O)(=O)O)CCC2CN3CCc4c([nH]c5ccccc45)C3CC21 (centres undefined)
- TGI (786-0 renal): > 100 µM
- TGI (A498 renal): > 100 µM
- TGI (A549 NSCLC): > 100 µM
- TGI (ACHN renal): > 100 µM
- TGI (BT-549 breast): > 100 µM
- TGI (CAKI-1 renal): > 100 µM
- TGI (CCRF-CEM leukemia): > 100 µM
- TGI (COLO 205 colon): > 100 µM
- TGI (DU-145 prostate): > 100 µM
- TGI (EKVX NSCLC): > 100 µM
- TGI (HCT-116 colon): > 100 µM
- TGI (HCT-15 colon): > 100 µM
- TGI (HL-60(TB) leukemia): > 100 µM
- TGI (HOP-62 NSCLC): > 100 µM
- TGI (HOP-92 NSCLC): > 100 µM
- TGI (HS 578T breast): > 100 µM
- TGI (HT29 colon): > 100 µM
- TGI (IGROV1 ovarian): > 100 µM
- TGI (K-562 leukemia): > 100 µM
- TGI (KM12 colon): > 100 µM
- TGI (LOX IMVI melanoma): > 100 µM
- TGI (M14 melanoma): > 100 µM
- TGI (MALME-3M melanoma): > 100 µM
- TGI (MCF7 breast): > 100 µM
- TGI (MDA-MB-231 breast): > 100 µM
- TGI (MDA-MB-435): > 100 µM
- TGI (MDA-N): > 100 µM
- TGI (MOLT-4 leukemia): > 100 µM
- TGI (NCI-H226 lung): > 100 µM
- TGI (NCI-H23 lung): > 100 µM
- TGI (NCI-H460 lung): > 100 µM
- TGI (NCI-H522 lung): > 100 µM
- TGI (NCI/ADR-RES ovarian): > 100 µM
- TGI (OVCAR-3 ovarian): > 100 µM
- TGI (OVCAR-4 ovarian): > 100 µM
- TGI (OVCAR-5 ovarian): > 100 µM
- TGI (OVCAR-8 ovarian): > 100 µM
- TGI (PC-3 prostate): > 100 µM
- TGI (RPMI-8226 leukemia): > 100 µM
- TGI (RXF 393 renal): > 100 µM
- TGI (SF-268 CNS): > 100 µM
- TGI (SF-295 CNS): > 100 µM
- TGI (SF-539 CNS): > 100 µM
- TGI (SK-MEL-2 melanoma): > 100 µM
- TGI (SK-MEL-28 melanoma): > 100 µM
- TGI (SK-MEL-5 melanoma): > 100 µM
- TGI (SK-OV-3 ovarian): > 100 µM
- TGI (SN12C renal): > 100 µM
- TGI (SNB-19 CNS): > 100 µM
- TGI (SNB-75 CNS): > 100 µM
- TGI (SR leukemia): > 100 µM
- TGI (SW-620 colon): > 100 µM
- TGI (T-47D breast): > 100 µM
- TGI (TK-10 renal): > 100 µM
- TGI (U251 CNS): > 100 µM
- TGI (UACC-257 melanoma): > 100 µM
- TGI (UACC-62 melanoma): > 100 µM
- TGI (UO-31 renal): > 100 µM
